We go through 14 compounds from ChEMBL document CHEMBL1201862, “PubChem BioAssay data set” (2004).

Each structure is given as a SMILES string. Active and inactive are the calls of the source. Cut-off read from the data, not from the text of the source, for most assays here: actives have a measured EC50 and inactives only a lower limit.

One may read the CC50 as the concentration that lowers cell viability or growth by half. By EC50 is commonly meant the concentration needed to bring the measured effect to its halfway point. The term AC50 denotes the concentration at which the activity in the assay is half-maximal. Broadly, the IC50 is the point on the concentration scale where inhibition reaches its midpoint.

System in one test: not listed separately
Put plainly: HEp-2 cell cytotoxicity, dose response, cytotoxicity control for RSV inhibitor project, HTS (AID 2410). Type of test: functional. As to conditions: human respiratory syncytial virus.
Take `O=C(Nc1nc2c(ccc3ccccc32)s1)c1ccco1`: the CC50 was 14.8 µM (active).

System in another test: not listed separately
As to the kind of experiment: inhibitors of firefly luciferase expression or activity, dose response, H4 neuroglioma cells, luminescence (AID 1990).
Settings: not given
Format: functional, cell-based.
Turning to `O=C(Nc1nc2cc3c(cc2s1)OCO3)C1=COCCO1`, the EC50 is 2.39 µM (inconclusive).

For a further test, the target named is T1, RNA-binding protein pos-1 (Caenorhabditis elegans, UniProt G5EF15).
T1 sequence (G5EF15 whole entry): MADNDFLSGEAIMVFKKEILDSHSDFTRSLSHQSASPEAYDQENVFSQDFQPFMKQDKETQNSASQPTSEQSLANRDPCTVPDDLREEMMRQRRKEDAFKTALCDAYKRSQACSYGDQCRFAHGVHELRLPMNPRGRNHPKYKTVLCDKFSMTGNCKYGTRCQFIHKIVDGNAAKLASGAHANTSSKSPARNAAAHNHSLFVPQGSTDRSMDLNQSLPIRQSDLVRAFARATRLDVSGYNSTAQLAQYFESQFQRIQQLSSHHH
As to the kind of experiment: inhibitors of POS-1/mex-3 RNA binding, dose response, biochemical, fluorescence polarization (AID 1964).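 Note: purified POS-1 fused to maltose binding protein made in E. coli; potency of compounds blocking POS-1 binding to fluorescent RNA.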
Settings: not given
(In fluorescence polarisation assays a small probe gives low polarisation when free and higher when bound to something large.)
With `Cc1ccc2nc3sc(C(=O)N4CCCc5ccccc54)c(N)c3cc2c1`, the EC50 is listed as > 300 µM (not active).

System in a further test: not listed separately
Put plainly: Luminescence Cell-Based Dose Confirmation HTS to Identify Activators of 5'UTR Stem-Loop Driven Alpha-Synuclein mRNA Translation in H4 Neuroglioblastoma Cells. [Related pubchem assays: 1829 (Project Summary), 1814 (Primary HTS)]. Format: functional.
Settings: not given
On to `NS(=O)(=O)c1cc2c(cc1Cl)NC(C1C[C@H]3C=C[C@@H]1C3)NS2(=O)=O` (stereo partly specified), for which the EC50 is given as > 120 µM (not active).

On to `COc1ccc(C2=NN(CN3C(=O)C(=O)c4ccccc43)C(c3ccc(OC)cc3)C2)cc1` (stereo unspecified), for which the concentration giving a half-maximal response (EC50) is 14.6 µM (active).

As to `COc1ccc2cc(C(=O)N3CCN(C)CC3)[nH]c2c1`, the 50% effective concentration (EC50) is 13.3 µM (active).

For `O=C(CNS(=O)(=O)c1cccs1)Nc1ccc2c(c1)OCCO2`, the EC50 is 11.6 µM (active).

For the compound `O=C1Nc2cc(Cl)c(Cl)cc2N(O)N1c1ccc(Cl)cc1`, the 50% effective concentration (EC50) was > 120 µM (not active).

Take `Cc1ccc2nc3sc(C(=O)N4CCCc5ccccc54)c(N)c3cc2c1`: the EC50 is > 120 µM (not active).

As for `Fc1ccccc1Nc1nc2ccccc2n2nnnc12`, the EC50 is 26.2 µM (active).

Take `c1ccc(CSc2nnc(-c3ccco3)n2Cc2ccccc2)cc1`: the half-maximal effective concentration (EC50) is 0.166 µM (active).

As to `ClC(=C\c1ccccc1)/C=N/N1CCN(c2ccccn2)CC1`, the EC50 is 0.347 µM (active).

Turning to `C[n+]1cn(/N=C/c2ccccc2)c2ccccc21`, the EC50 is 17.4 µM (active).

System in a further test: not listed separately
As to the kind of experiment: Luminescence Cell-Based Dose Response HTS to Identify Activators of Luciferase Translation or Activity in H4 […] Cells. [Related pubchem assays: 1829 (Project Summary), 1814 (Primary HTS)]. Format: functional.
Settings: not given
For `NS(=O)(=O)c1cc2c(cc1Cl)NC(C1C[C@H]3C=C[C@@H]1C3)NS2(=O)=O` (stereo partly specified), the concentration for a half-maximal effect (EC50) is listed as > 120 µM (not active).

As for `COc1ccc2cc(C(=O)N3CCN(C)CC3)[nH]c2c1`, the concentration giving a half-maximal response (EC50) is 9.45 µM (active).

Consider `O=C(CNS(=O)(=O)c1cccs1)Nc1ccc2c(c1)OCCO2`, for which the EC50 is 7.8 µM (active).

Regarding `O=C1Nc2cc(Cl)c(Cl)cc2N(O)N1c1ccc(Cl)cc1`, the 50% effective concentration (EC50) is given as > 120 µM (not active).

As for `Cc1ccc2nc3sc(C(=O)N4CCCc5ccccc54)c(N)c3cc2c1`, the EC50 is 7.55 µM (active).

Turning to `Fc1ccccc1Nc1nc2ccccc2n2nnnc12`, the EC50 is 95.3 µM (active).

Consider `c1ccc(CSc2nnc(-c3ccco3)n2Cc2ccccc2)cc1`, for which the 50% effective concentration (EC50) is 6.57 µM (active).

Consider `ClC(=C\c1ccccc1)/C=N/N1CCN(c2ccccn2)CC1`, for which the concentration giving a half-maximal response (EC50) is 36.5 µM (active).

In the case of `C[n+]1cn(/N=C/c2ccccc2)c2ccccc21`, the EC50 is recorded as > 120 µM (not active).

System in the next test: not listed separately
As to the kind of experiment: Luminescence Cell-Based Dose Response HTS to Identify Inhibitors of 5'UTR Stem-Loop Driven Prion Protein mRNA Translation in H4 Neuroglioblastoma Cells. [Related pubchem assays: 1827 (Project Summary), 1813 (Primary HTS)]. Type of test: functional.
Settings: not given
With `O=C(Nc1nc2cc3c(cc2s1)OCO3)C1=COCCO1`, the half-maximal effective concentration (EC50) is 6.64 µM (active).

The next test relates to H4. Put plainly: Luminescence Cell-Based Dose Response HTS to Identify Activators of 5'UTR Stem-Loop Driven Prion Protein mRNA Translation in H4 Neuroglioblastoma Cells. [Related pubchem assays: 1829 (Project Summary), 1814 (Primary HTS)]. The note with it: Homo sapiens. Format: functional.
With `NS(=O)(=O)c1cc2c(cc1Cl)NC(C1C[C@H]3C=C[C@@H]1C3)NS2(=O)=O` (stereo partly specified), the half-maximal effective concentration (EC50) was > 120 µM (not active).

For the compound `COc1ccc(C2=NN(CN3C(=O)C(=O)c4ccccc43)C(c3ccc(OC)cc3)C2)cc1` (stereo unspecified), the EC50 was 0.112 µM (active).

With `COc1ccc2cc(C(=O)N3CCN(C)CC3)[nH]c2c1`, the EC50 was > 120 µM (not active).

As for `O=C(CNS(=O)(=O)c1cccs1)Nc1ccc2c(c1)OCCO2`, the EC50 is 2.85 µM (active).

In the case of `O=C1Nc2cc(Cl)c(Cl)cc2N(O)N1c1ccc(Cl)cc1`, the EC50 is > 120 µM (not active).

In the case of `Cc1ccc2nc3sc(C(=O)N4CCCc5ccccc54)c(N)c3cc2c1`, the EC50 is recorded as > 120 µM (not active).

Turning to `Fc1ccccc1Nc1nc2ccccc2n2nnnc12`, the EC50 is 62.6 µM (active).

Regarding `c1ccc(CSc2nnc(-c3ccco3)n2Cc2ccccc2)cc1`, the EC50 is 7.76 µM (active).

In the case of `ClC(=C\c1ccccc1)/C=N/N1CCN(c2ccccn2)CC1`, the EC50 is 8.35 µM (active).

`C[n+]1cn(/N=C/c2ccccc2)c2ccccc21`: the EC50 was 57.7 µM (active).

The target in a further test is T2, Zinc finger protein mex-5 (Caenorhabditis elegans, UniProt Q9XUB2).
T2 sequence (Q9XUB2 whole entry): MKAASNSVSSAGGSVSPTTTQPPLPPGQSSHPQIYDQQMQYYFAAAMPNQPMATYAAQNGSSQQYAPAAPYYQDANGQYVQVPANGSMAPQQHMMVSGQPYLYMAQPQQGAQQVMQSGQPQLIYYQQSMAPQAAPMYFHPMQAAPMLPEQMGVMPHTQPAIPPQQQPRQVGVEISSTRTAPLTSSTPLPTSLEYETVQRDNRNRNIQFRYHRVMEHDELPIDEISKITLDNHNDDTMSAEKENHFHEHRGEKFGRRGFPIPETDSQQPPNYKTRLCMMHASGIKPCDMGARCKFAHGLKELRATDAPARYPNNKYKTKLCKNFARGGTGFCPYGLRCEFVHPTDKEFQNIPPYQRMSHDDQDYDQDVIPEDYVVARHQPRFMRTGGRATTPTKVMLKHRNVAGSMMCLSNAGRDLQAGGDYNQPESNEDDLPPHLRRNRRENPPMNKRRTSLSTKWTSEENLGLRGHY
As to the kind of experiment: MEX-5/TCR-2 RNA interaction inhibitors, dose response, biochemical, C. elegans, fluorescence polarization (AID 1960).
Settings: not given
As to `Cc1ccc2nc3sc(C(=O)N4CCCc5ccccc54)c(N)c3cc2c1`, the 50% effective concentration (EC50) was > 300 µM (inconclusive).

System in another test: not listed separately
Put plainly: inhibitors of SNCA 5'UTR-driven reporter translation, confirmation, H4 neuroglioma cells, luminescence (AID 1988).
Settings: not given
Format: functional, cell-based.
Take `O=C(Nc1nc2cc3c(cc2s1)OCO3)C1=COCCO1`: the EC50 is 1.22 µM (active).

System in a further test: not listed separately
Put plainly: growth suppression of PTEN-null colon cells, dose response, cell-based, HCT116 PTEN knockout (AID 1047).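 Note: HCT116 colon tumor cells with PTEN knocked out; cells exposed to compound for 60 hours before readout; potency for loss of cell viability measured by luminescence.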 Type of test: functional.
Settings: not given
As to `C=C(C)CN1C(=O)C(O)(CC(=O)c2ccc3c(c2)OCCO3)c2ccccc21` (stereo unspecified), the EC50 was 22.1 µM (active).

`CCc1cc(SC#N)cc(CC)c1NC(=O)CCl`: the concentration for a half-maximal effect (EC50) was 8.97 µM (active).

System in a further test: not listed separately
Put plainly: growth suppression of beta-catenin-knockout colon cells, dose response, cell-based, HCT116, human colon tumor (AID 1045).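 Note: HCT116 colon tumor cells with beta catenin knocked out; cells exposed to compound for 60 hours.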 Format: functional.
Settings: not given
Consider `C=C(C)CN1C(=O)C(O)(CC(=O)c2ccc3c(c2)OCCO3)c2ccccc21` (stereo unspecified), for which the EC50 is 22.7 µM (active).

For the compound `CCc1cc(SC#N)cc(CC)c1NC(=O)CCl`, the EC50 is 8.43 µM (active).

The next test concerns the target T3, Microphthalmia-associated transcription factor (Homo sapiens, UniProt O75030).
T3 sequence (O75030 whole entry): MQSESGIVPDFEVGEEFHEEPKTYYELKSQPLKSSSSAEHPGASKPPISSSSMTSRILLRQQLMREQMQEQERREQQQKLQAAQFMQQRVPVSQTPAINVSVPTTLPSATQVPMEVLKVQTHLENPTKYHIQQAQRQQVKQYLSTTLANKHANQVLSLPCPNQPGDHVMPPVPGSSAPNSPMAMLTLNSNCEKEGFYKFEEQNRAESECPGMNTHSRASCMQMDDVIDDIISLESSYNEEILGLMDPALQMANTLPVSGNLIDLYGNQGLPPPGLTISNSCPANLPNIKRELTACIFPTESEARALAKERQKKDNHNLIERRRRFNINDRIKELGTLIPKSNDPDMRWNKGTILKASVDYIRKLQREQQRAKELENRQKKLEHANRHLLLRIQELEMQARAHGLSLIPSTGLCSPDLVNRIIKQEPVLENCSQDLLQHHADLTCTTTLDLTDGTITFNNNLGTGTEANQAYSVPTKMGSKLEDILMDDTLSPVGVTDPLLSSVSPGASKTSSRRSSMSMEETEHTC
Put plainly: TRPM1 promoter luciferase signal decrease, dose response, MITF inhibitor project, cell-based, SK-MEL-5, cherry-picked, set 3 (AID 493073).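 Note: SK-MEL-5 melanoma cells with luciferase driven by the MITF target TRPM1 promoter.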 Type of test: functional.
Settings: not given
`O=C(Nc1nc2cc3c(cc2s1)OCO3)C1=COCCO1`: the concentration at half-maximal activity (AC50) was 3.77 µM (active).

A further test concerns the target T4, Protein skinhead-1 (Caenorhabditis elegans, UniProt P34707).
T4 sequence (P34707 whole entry): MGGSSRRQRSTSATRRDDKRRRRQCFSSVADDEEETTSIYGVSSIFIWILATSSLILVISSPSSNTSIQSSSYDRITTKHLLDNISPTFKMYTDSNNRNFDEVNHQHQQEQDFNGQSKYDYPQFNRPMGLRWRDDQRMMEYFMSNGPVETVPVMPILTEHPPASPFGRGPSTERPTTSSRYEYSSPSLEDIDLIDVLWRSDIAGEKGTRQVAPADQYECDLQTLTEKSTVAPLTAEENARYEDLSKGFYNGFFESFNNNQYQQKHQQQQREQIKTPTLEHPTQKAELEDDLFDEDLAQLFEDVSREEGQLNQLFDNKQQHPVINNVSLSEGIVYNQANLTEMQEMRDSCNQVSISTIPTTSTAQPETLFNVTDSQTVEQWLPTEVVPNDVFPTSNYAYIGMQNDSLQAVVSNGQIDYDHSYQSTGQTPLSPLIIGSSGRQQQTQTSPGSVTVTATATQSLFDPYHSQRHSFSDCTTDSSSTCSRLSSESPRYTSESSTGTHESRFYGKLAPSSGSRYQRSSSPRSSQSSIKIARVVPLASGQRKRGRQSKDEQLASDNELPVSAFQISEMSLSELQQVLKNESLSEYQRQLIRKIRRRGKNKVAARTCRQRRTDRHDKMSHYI
Assay: not given
Format: functional.
Settings: not given
On to `O=C(Nc1nc2c(ccc3ccccc32)s1)c1ccco1`, for which the IC50 was 14.9 µM (active).
